Results as given in patent publication US11186577B2, “Vasopressin receptor antagonists and products and methods related thereto” (BlackThorn Therapeutics, Inc., priority 2017, dated 2021).

target: human Arginine Vasopressin Receptor 1a (AVPR1a) (Homo sapiens (Human), UniProt P37288); experiment: Vasopressin V1A receptor antagonist assay (AVP-evoked calcium, FLIPR, CHO-AVPR1a cells); type: cell-based; conditions: not given
Procedure: The purpose of this assay was to determine the inhibitory effect of synthesized compounds on the Vasopressin V1a receptor. The assay as performed in Chinese Hamster Ovary (CHO) cells expressing the human Arginine Vasopressin Receptor 1a (AVPR1a). Arginine Vasopressin (AVP) evokes an increase in intracellular calcium in CHO-AVPR1a cells which is measured in a fluorescence assay on the FLIPR^TETRA using calcium sensitive dyes. Test compounds were assessed for their ability to affect the magnitude of the response to AVP, with antagonists showing a concentration-dependent reduction in the AVP-mediated fluorescence. Compounds were tested in duplicate in a 10-point, 1:3 dilution series starting at a nominal concentration of 3 μM in the assay.
CHO-AVPR1a cells were maintained in routine culture in T175 Flasks at 37° C., 5% CO2. The growth medium consists of Ham's F12 media supplemented with 10% v/v fetal bovine serum, 1× non-essential amino acids, and 0.4 mg/ml Geneticin G418.
On day one, cells were harvested from T175 flasks when they are 80-90% confluent by first washing the cell monolayer with PBS and then dissociated using trypsin 0.05%/EDTA (3 mL for a T175 Flask). The flasks were incubated at room temperature until the cells detached. To the cell suspension, 10 ml of growth media was added and the cell density determined using the Vi-Cell automated cell counter. The cells were spun at 1000 rpm for 3 minutes, then the supernatant was carefully removed and discarded. The cell pellet was re-suspended at 6.0e^5 cells/ml in growth media. 25 μL of cells in growth media was dispensed into each well (15,000 cells per well) of a poly-D-lysine coated black, clear bottomed, 384-well plate. The plates were incubated at 37° C., 5% CO2 overnight.
At the start of each assay day, the potency of AVP was assessed and an EC80 concentration determined for subsequent compound profiling. Assays were performed using a two-step addition protocol on the FLIPR^TETRA; first addition of 5 μl of control or test compound at 10× final in assay buffer with 15 min incubation at 37° C., 5% CO2 followed by 10 μl of AVP at 6× final concentration in assay buffer. […] The assay buffer consisted of HBSS (+Ca/+Mg) supplemented with 20 mM HEPES, and for the preparation of the AVP agonist only, 0.1% w/v bovine serum albumin. The assay was initiated by the removal of growth media from the cells and replacement with 45 μl of Calcium-6 dye (Molecular Devices) prepared at 1× in assay buffer. Cells are loaded with dye for 60-90 min at 37° C., 5% CO2 before initiation of the FLIPR^TETRA protocol. […] At the end of the incubation period, 10 μl of AVP in assay buffer containing 0.1% BSA was added at the previously determined EC80 concentration.

Sequence of human Arginine Vasopressin Receptor 1a (AVPR1a) (P37288 whole entry): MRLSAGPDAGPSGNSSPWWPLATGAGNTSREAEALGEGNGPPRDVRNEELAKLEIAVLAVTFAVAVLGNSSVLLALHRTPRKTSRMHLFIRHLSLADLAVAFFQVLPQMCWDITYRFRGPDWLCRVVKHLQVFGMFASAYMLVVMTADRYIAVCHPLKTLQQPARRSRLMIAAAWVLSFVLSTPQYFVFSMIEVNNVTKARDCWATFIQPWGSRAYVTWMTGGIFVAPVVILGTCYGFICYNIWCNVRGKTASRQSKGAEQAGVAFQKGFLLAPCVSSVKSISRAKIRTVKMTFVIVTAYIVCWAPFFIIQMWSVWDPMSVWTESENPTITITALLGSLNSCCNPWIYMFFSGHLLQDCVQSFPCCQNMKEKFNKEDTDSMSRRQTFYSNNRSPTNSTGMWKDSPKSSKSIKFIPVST

Question: Which IC50 does the source give for `CN1Cc2cc(Cl)ccc2-n2c(nnc2C2CC3(C2)CN(S(=O)(=O)C2CC2)C3)C1` [compound 26] here?
Answer: 100 to 500 nM

Question: Which IC50 does the source give for `CC(C)C(=O)N1CC2(CC(c3nnc4n3-c3ccc(Cl)cc3CN(C)C4)C2)C1` [compound 30] here?
Answer: 100 to 500 nM

Question: Which IC50 does the source give for `CN1Cc2cc(Cl)ccc2-n2c(nnc2C2CC3(C2)CN(C(=O)C2(C)CC2)C3)C1` [compound 31] here?
Answer: 100 to 500 nM

Question: Which IC50 does the source give for `CN1Cc2cc(Cl)ccc2-n2c(nnc2C2CC3(C2)CN(S(C)(=O)=O)C3)C1` [compound 34, 8-chloro-5-methyl-1-(2-(methylsulfonyl)-2-azaspiro[3.3]heptan-6-yl)-5,6-dihydro-4H-benzo[f][1,2,4]triazolo[4,3-a][1,4]diazepine] here?
Answer: 500 to 1000 nM

Question: With `CN1Cc2cc(Cl)ccc2-n2c(nnc2C2CC3(C2)CN(C(=O)C2CCC2)C3)C1` [compound 35] as the compound, how does the IC50 read?
Answer: 100 to 500 nM

Question: With `CC(C)N1Cc2cc(Cl)ccc2-n2c(nnc2C2CC3(C2)CN(c2cccnc2)C3)C1` [compound 51] as the compound, how does the IC50 read?
Answer: 100 to 500 nM

Question: With `COCCN1Cc2cc(Cl)ccc2-n2c(nnc2C2CC3(C2)CN(c2cccnc2)C3)C1` [compound 55] as the compound, how does the IC50 read?
Answer: 100 to 500 nM

Question: With `Fc1ccc(N2CC3(CC(c4nnc5n4-c4ccc(Cl)cc4CNC5)C3)C2)nc1` [compound 60, 8-chloro-1-(2-(5-fluoropyridin-2-yl)-2-azaspiro[3.3]heptan-6-yl)-5,6-dihydro-4H-benzo[f][1,2,4]triazolo[4,3-a][1,4]diazepine] as the compound, how does the IC50 read?
Answer: 100 to 500 nM

Question: `CC(=O)N1Cc2cc(Cl)ccc2-n2c(nnc2C2CC3(C2)CN(c2cccnn2)C3)C1` [compound 66] was tested. Which IC50 did it give?
Answer: 100 to 500 nM

Question: Which IC50 does the source give for `CN1Cc2cc(Cl)ccc2-n2c(nnc2C2CC3(C2)CN(C(=O)C2CC2(F)F)C3)C1` (stereo not drawn) [compound 124] here?
Answer: 100 to 500 nM

Question: With `COC(=O)N1Cc2cc(Cl)ccc2-n2c(nnc2C2CC3(C2)CN(c2ccncn2)C3)C1` [compound 186] as the compound, how does the IC50 read?
Answer: 100 to 500 nM

same assay, conditions: read-out: V1a IC50

Question: Which IC50 does the source give for `CC(C)OC(=O)N1Cc2cc(Cl)ccc2-n2c(C3CC4(C3)CN(c3ccc(F)cn3)C4)nnc2C1C` (single isomer, unassigned) [Cpd 163B] here?
Answer: 500 to 1000 nM

Question: Which IC50 does the source give for `COC(=O)N1Cc2cc(Cl)ccc2-n2c(C3CC4(C3)CN(c3cnccn3)C4)nnc2C1C` (single isomer, unassigned) [Cpd 165B] here?
Answer: 500 to 1000 nM

Question: Which IC50 does the source give for `COC(=O)N1Cc2cc(Cl)ccc2-n2c(C3CC4(C3)CN(c3ncccn3)C4)nnc2C1C` (single isomer, unassigned) [Cpd 166B] here?
Answer: 500 to 1000 nM

Question: `CC(C)OC(=O)N1Cc2cc(Cl)ccc2-n2c(C3CC4(C3)CN(c3ncccn3)C4)nnc2C1C` (single isomer, unassigned) [Cpd 167B] was tested. Which IC50 did it give?
Answer: > 1000 nM

Question: For `CCOC(=O)N1Cc2cc(Cl)ccc2-n2c(C3CC4(C3)CN(c3ncccn3)C4)nnc2C1C` (single isomer, unassigned) [Cpd 168B], which IC50 is on record?
Answer: 100 to 500 nM

Question: Which IC50 does the source give for `CCOC(=O)N1Cc2cc(Cl)ccc2-n2c(C3CC4(C3)CN(c3ccc(F)cn3)C4)nnc2C1C` (single isomer, unassigned) [Cpd 169B] here?
Answer: 100 to 500 nM

Question: With `COC(=O)N1Cc2cc(Cl)ccc2-n2c(C3CC4(C3)CN(c3ncc(F)cn3)C4)nnc2C1C` (single isomer, unassigned) [Cpd 170B] as the compound, how does the IC50 read?
Answer: 500 to 1000 nM

Question: `CCOC(=O)N1Cc2cc(Cl)ccc2-n2c(C3CC4(C3)CN(c3ncc(F)cn3)C4)nnc2C1C` (single isomer, unassigned) [Cpd 172B] was tested. Which IC50 did it give?
Answer: > 1000 nM

Question: `CC1c2nnc(C3CC4(C3)CN(c3ccc(F)cn3)C4)n2-c2ccc(Cl)cc2CN1C(=O)C(C)(C)F` (single isomer, unassigned) [Cpd 178B] was tested. Which IC50 did it give?
Answer: 100 to 500 nM

Question: How did the IC50 turn out when `CC1c2nnc(C3CC4(C3)CN(c3ccc(F)cn3)C4)n2-c2ccc(Cl)cc2CN1C` (single isomer, unassigned) [Cpd 179B] was run?
Answer: 100 to 500 nM

Question: With `CC1c2nnc(C3CC4(C3)CN(c3ccccn3)C4)n2-c2ccc(Cl)cc2CN1C(=O)C1(F)CC1` (single isomer, unassigned) [Cpd 181B] as the compound, how does the IC50 read?
Answer: 100 to 500 nM

Question: `COC(=O)N1Cc2cc(Cl)ccc2-n2c(C3CC4(C3)CN(c3ccncn3)C4)nnc2C1C` (single isomer, unassigned) [Cpd 184B] was tested. Which IC50 did it give?
Answer: > 1000 nM

Question: For `CC(C)OC(=O)N1Cc2cc(Cl)ccc2-n2c(C3CC4(C3)CN(c3ccncn3)C4)nnc2C1C` (single isomer, unassigned) [Cpd 187A], which IC50 is on record?
Answer: < 100 nM

Question: Which IC50 does the source give for `CC(C)OC(=O)N1Cc2cc(Cl)ccc2-n2c(C3CC4(C3)CN(c3ccncn3)C4)nnc2C1C` (single isomer, unassigned) [Cpd 187B] here?
Answer: > 1000 nM

Question: Which IC50 does the source give for `COC(=O)N1Cc2cc(Cl)ccc2-n2c(C3CC4(C3)CN(c3ncncc3F)C4)nnc2C1C` (single isomer, unassigned) [Cpd 188A] here?
Answer: < 100 nM

Question: How did the IC50 turn out when `COC(=O)N1Cc2cc(Cl)ccc2-n2c(C3CC4(C3)CN(c3ncncc3F)C4)nnc2C1C` (single isomer, unassigned) [Cpd 188B] was run?
Answer: > 1000 nM

Question: For `CC1c2nnc(C3CC4(C3)CN(c3ccc(F)cn3)C4)n2-c2ccc(Cl)cc2CN1C(=O)OC1CC1` (single isomer, unassigned) [Cpd 191B], which IC50 is on record?
Answer: > 1000 nM

Question: For `CC1c2nnc(C3CC4(C3)CN(c3ncc(F)cn3)C4)n2-c2ccc(Cl)cc2CN1C(=O)OC1CC1` (single isomer, unassigned) [Cpd 192B], which IC50 is on record?
Answer: > 1000 nM

Question: For `CC1c2nnc(C3CC4(C3)CN(c3ncc(F)cn3)C4)n2-c2ccc(Cl)cc2CN1C(=O)OC(CF)CF` (single isomer, unassigned) [Cpd 194B], which IC50 is on record?
Answer: > 1000 nM

Question: Which IC50 does the source give for `CC(C)OC(=O)N1Cc2cc(Cl)ccc2-n2c(C3CC4(C3)CN(c3ncc(F)cn3)C4)nnc2C1C` (single isomer, unassigned) [Cpd 201B] here?
Answer: 500 to 1000 nM

Question: For `CN1Cc2cc(Cl)ccc2-n2c(nnc2C2CC3(C2)CN(C(=O)c2ccccn2)C3)C1` [compound 24], which IC50 is on record?
Answer: > 1000 nM

Question: How did the IC50 turn out when `CN1Cc2cc(Cl)ccc2-n2c(nnc2C2CC3(C2)CN(C(=O)N2CCOCC2)C3)C1` [compound 25] was run?
Answer: > 1000 nM

Question: Which IC50 does the source give for `CN1Cc2cc(Cl)ccc2-n2c(nnc2C2CC3(C2)CN(C(=O)C2CCOCC2)C3)C1` [compound 27] here?
Answer: > 1000 nM

Question: `CN1Cc2cc(Cl)ccc2-n2c(nnc2C2CC3(C2)CN(C(=O)OC2CCOCC2)C3)C1` [compound 29] was tested. Which IC50 did it give?
Answer: > 1000 nM

Question: With `CN1Cc2cc(Cl)ccc2-n2c(nnc2C2CC3(C2)CN(C(=O)CC2CC2)C3)C1` [compound 32] as the compound, how does the IC50 read?
Answer: > 1000 nM

Question: How did the IC50 turn out when `CN1Cc2cc(Cl)ccc2-n2c(nnc2C2CC3(C2)CN(C(=O)C2CCO2)C3)C1` (stereo not drawn) [compound 33] was run?
Answer: > 1000 nM

Question: `CN1Cc2cc(Cl)ccc2-n2c(nnc2C2CC3(C2)CN(c2ncccn2)C3)C1` [compound 38] was tested. Which IC50 did it give?
Answer: < 100 nM

Question: Which IC50 does the source give for `Clc1ccc2c(c1)CN(C1CCC1)Cc1nnc(C3CC4(C3)CN(c3cnccn3)C4)n1-2` [compound 40] here?
Answer: < 100 nM

Question: For `COCCN1Cc2cc(Cl)ccc2-n2c(nnc2C2CC3(C2)CN(c2cnccn2)C3)C1` [compound 43], which IC50 is on record?
Answer: < 100 nM

Question: For `COCCN1Cc2cc(Cl)ccc2-n2c(nnc2C2CC3(C2)CN(c2ccc(F)cn2)C3)C1` [compound 44], which IC50 is on record?
Answer: < 100 nM

Question: For `COCCN1Cc2cc(Cl)ccc2-n2c(nnc2C2CC3(C2)CN(c2ncccc2F)C3)C1` [compound 53], which IC50 is on record?
Answer: < 100 nM

Question: Which IC50 does the source give for `CC(C)(C)OC(=O)N1Cc2cc(Cl)ccc2-n2c(nnc2C2CC3(C2)CN(c2ccccn2)C3)C1` [compound 62] here?
Answer: < 100 nM

Question: How did the IC50 turn out when `O=C(C(F)F)N1Cc2cc(Cl)ccc2-n2c(nnc2C2CC3(C2)CN(c2cnccn2)C3)C1` [compound 82] was run?
Answer: < 100 nM

Question: For `CN1Cc2cc(Cl)ccc2-c2c(C3CC4(C3)CN(c3ccc(F)cn3)C4)noc2C1` [compound 97, 8-chloro-1-(2-(5-fluoropyridin-2-yl)-2-azaspiro[3.3]heptan-6-yl)-5-methyl-5,6-dihydro-4H-benzo[c]isoxazolo[4,5-e]azepine], which IC50 is on record?
Answer: < 100 nM

Question: How did the IC50 turn out when `COCC(=O)N1CC2(CC(c3nnc4n3-c3ccc(Cl)cc3CN(C)C4)C2)C1` [compound 126] was run?
Answer: > 1000 nM

Question: `O=C(C1C[C@H]1F)N1Cc2cc(Cl)ccc2-n2c(nnc2C2CC3(C2)CN(c2ccc(F)cn2)C3)C1` (stereo partly drawn) [compound 158] was tested. Which IC50 did it give?
Answer: < 100 nM

Question: How did the IC50 turn out when `O=C(C1C[C@@H]1F)N1Cc2cc(Cl)ccc2-n2c(nnc2C2CC3(C2)CN(c2ccc(F)cn2)C3)C1` (stereo partly drawn) [compound 159] was run?
Answer: < 100 nM

Question: How did the IC50 turn out when `CC1c2nnc(C3CC4(C3)CN(c3ccc(F)cn3)C4)n2-c2ccc(Cl)cc2CN1C(=O)C(C)(C)F` (stereo not drawn) [compound 178] was run?
Answer: < 100 nM

Question: Which IC50 does the source give for `CC1c2nnc(C3CC4(C3)CN(c3ccccn3)C4)n2-c2ccc(Cl)cc2CN1C(=O)C1(F)CC1` (stereo not drawn) [compound 181] here?
Answer: < 100 nM

Question: `COC(=O)N1Cc2cc(Cl)ccc2-n2c(C3CC4(C3)CN(c3ccncn3)C4)nnc2C1C` (stereo not drawn) [compound 184, methyl 8-chloro-4-methyl-1-(2-(pyrimidin-4-yl)-2-azaspiro[3.3]heptan-6-yl)-4H-benzo[f][1,2,4]triazolo[4,3-a][1,4]diazepine-5(6H)-carboxylate] was tested. Which IC50 did it give?
Answer: 100 to 500 nM
